Patent publication US20150065456A1, “AGENT FOR TREATMENT AND PREVENTION OF CANCER” (Daiichi Sankyo Company, Limited, priority 2013, published 2015)
Read-outs that look alike come from different tables or passages of the source.

Columns and labels:
[1] = test system: subjects with symptomatic venous thromboembolism (VTE); assay: Hokusai VTE phase 3 clinical study: investigator-reported malignancies clinically evident post-randomization; type: in vivo, human; settings: for All Subjects with a Malignancy Event, HR: edoxaban vs warfarin, Cox proportional hazards model
Procedure: The study was a randomized, double-blind, clinical study, in which subjects with symptomatic venous thromboembolism (VTE), which included PE, with or without deep venous thrombosis (DVT), or DVT only, were treated with either edoxaban or warfarin, a Vitamin K antagonist, which is an indirect inhibitor of coagulation. […] The subjects participating in the study were adult male and female patients presenting with acute, symptomatic DVT involving popliteal, femoral, or ileac veins, or PE requiring anti-thrombotic therapy. Patients with various types of cancer were among the subjects who were treated in this study, so long as long term treatment with heparin was not anticipated as a treatment regimen for such patients. This clinical study is named Hokusai-VTE and is the largest single phase 3 clinical study in the treatment and prevention of recurrence of VTE using an FXa inhibitor such as edoxaban. More than 8,250 patients were enrolled in the study from more than 400 clinical sites across 38 countries worldwide. The Hokusai-VTE clinical study was designed to reflect clinical practice, using a standard heparin lead-in and providing a flexible treatment duration of three, six or twelve months. This study design allowed the evaluation of patients with a broad range of risks, including patients with moderate or severe conditions of PE and DVT. […] (See, Example 1, infra).
The study (Hokusai VTE Clinical Study) constituted a phase 3, randomized, double-blind, double-dummy, parallel-group, multi-center, multi-national study for the evaluation of efficacy and safety of (LMW) heparin/edoxaban versus (LMW) heparin/warfarin in subjects with symptomatic deep-vein thrombosis and/or pulmonary embolism. The study indication related to the reduction of the risk of symptomatic recurrent venous thromboembolic complications in patients with acute symptomatic deep vein thrombosis (DVT) and/or pulmonary embolism (PE). […] Accordingly, the nature of the study was the use of edoxaban as direct inhibitor of Factor Xa in the treatment of VTE.
Following stratification and treatment allocation as described above, all patients were randomized to either a standard of care (SOC) treatment regimen, i.e., heparin+warfarin, until the international normalized ratio (INR) was between 2-3, followed by warfarin alone; or an edoxaban treatment regimen, i.e., heparin for 5 days followed by edoxaban (as the free base) at a dose of 60-mg QD (or 30-mg QD, in the low exposure group). This study aimed to treat all patients for the entire 12 month period following randomization. Ultimately, the evolving nature of the patient's clinical status and changes in the risk/benefit over time determined the length of treatment for a given patient. Irrespective of actual treatment duration, all patients were followed for the entire 12 months after randomization.
Edoxaban was administered in 30 and 60 mg dose-strengths in tablet form. Warfarin was administered in 1, 2.5 and 5 mg dose-strengths. Matching placebos were used for each of the test drugs. Edoxaban and warfarin were administered orally (PO). Enoxaparin was administered by subcutaneous (SC) injection.
The study was an event-driven, Phase 3, multi-national, multi-center, randomized, double-blind, matching placebo, parallel-group non-inferiority study for efficacy. The total study period after randomization was 12 months in duration. Ideally, all subjects remained on study treatment throughout this period. However, mitigating factors related to the subject's clinical status could influence the total duration of treatment a given subject actually received (See, Treatment Arms, below). Nevertheless, all subjects were administered a minimum of three months' treatment consistent with current ACCP Guidelines.

[2] = rats; cited from earlier work
[3] = monkeys; cited from earlier work
[4] = cited from earlier work
[5] = Overall Study Period (up to 12 months)

Structure (SMILES) | All Subjects with a Malignancy Event, (%) ([1]; On-Treatment Study Period) | Leukemia, Lymphoma, and Other Blood Malignancies, (%) ([1]; On-Treatment Study Period) | Malignancy diagnosed as a result of work-up for anemia or bleeding: No, (%) ([1]; On-Treatment Study Period) | Malignancy diagnosed as a result of work-up for anemia or bleeding: Yes, (%) ([1]; On-Treatment Study Period) | Solid Tumor, (%) ([1]; On-Treatment Study Period) | All Subjects with a Malignancy Event, (%) [1, 5] | Leukemia, Lymphoma, and Other Blood Malignancies, (%) [1, 5] | Malignancy diagnosed as a result of work-up for anemia or bleeding: No, (%) [1, 5] | Malignancy diagnosed as a result of work-up for anemia or bleeding: Yes, (%) [1, 5] | Solid Tumor, (%) [1, 5] | All Subjects with a Malignancy Event, (%) ([1]; Treatment+30 Days Study Period) | Leukemia, Lymphoma, and Other Blood Malignancies, (%) ([1]; Treatment+30 Days Study Period) | Malignancy diagnosed as a result of work-up for anemia or bleeding: No, (%) ([1]; Treatment+30 Days Study Period) | Malignancy diagnosed as a result of work-up for anemia or bleeding: Yes, (%) ([1]; Treatment+30 Days Study Period) | Solid Tumor, (%) ([1]; Treatment+30 Days Study Period) | also measured
CN1CCc2nc(C(=O)N[C@@H]3C[C@@H](C(=O)N(C)C)CC[C@@H]3NC(=O)C(=O)Nc3ccc(Cl)cn3)sc2C1 [Edoxaban] | (1.6) % | (<0.1) % | (1.4) % | (0.2) % | (1.5) % | (2.8) % | (0.2) % | (2.2) % | (0.6) % | (2.7) % | (2.4) % | (0.1) % | (1.8) % | (0.6) % | (2.3) % | Kaplan-Meier cumulative incidence (%) of new or recurrent malignancies versus warfarin-treated subjects ([1]; FIG. 1, treatment +30 days study period, 390 days from initial study drug administration): significant decrease; Kaplan-Meier cumulative incidence (%) of new or recurrent malignancies versus warfarin-treated subjects ([1]; FIG. 2, overall study period, about 360 days from initial study drug administration): significant decrease; All Subjects with a Malignancy Event, HR ([1]; On-Treatment Study Period): 0.73; All Subjects with a Malignancy Event, HR ([1]; Overall Study Period): 0.85; All Subjects with a Malignancy Event, HR ([1]; Treatment+30 Days Study Period): 0.84; oral bioavailability [2]: orally bioavailable; oral bioavailability [3]: orally bioavailable; safety and tolerability ([4]; doses of up to 90-mg per day): generally safe and well tolerated; oral bioavailability ([4]; human subjects): orally bioavailable
CC(=O)CC(c1ccccc1)c1c(O)c2ccccc2oc1=O (stereo not drawn) [Warfarin, warfarin, reference compound] | 2.2% | 0.1% | 1.9% | 0.2% | 2.0% | 3.3% | 0.2% | 2.8% | 0.5% | 3.1% | 2.9% | 0.2% | 2.4% | 0.5% | 2.6% | –
